This note sets out measurements from paper PMC7818921, “Synthesis and biological evaluation of heterocyclic 1,2,4-triazole scaffolds as promising pharmacological agents” (BMC Chemistry, 2021).

pIC50: −log10 of the molar value. Converted amounts (≈) assume the structure as drawn. Some results are limits rather than exact numbers.

Sequence of Jack Bean Urease (P07374 whole entry, looked up): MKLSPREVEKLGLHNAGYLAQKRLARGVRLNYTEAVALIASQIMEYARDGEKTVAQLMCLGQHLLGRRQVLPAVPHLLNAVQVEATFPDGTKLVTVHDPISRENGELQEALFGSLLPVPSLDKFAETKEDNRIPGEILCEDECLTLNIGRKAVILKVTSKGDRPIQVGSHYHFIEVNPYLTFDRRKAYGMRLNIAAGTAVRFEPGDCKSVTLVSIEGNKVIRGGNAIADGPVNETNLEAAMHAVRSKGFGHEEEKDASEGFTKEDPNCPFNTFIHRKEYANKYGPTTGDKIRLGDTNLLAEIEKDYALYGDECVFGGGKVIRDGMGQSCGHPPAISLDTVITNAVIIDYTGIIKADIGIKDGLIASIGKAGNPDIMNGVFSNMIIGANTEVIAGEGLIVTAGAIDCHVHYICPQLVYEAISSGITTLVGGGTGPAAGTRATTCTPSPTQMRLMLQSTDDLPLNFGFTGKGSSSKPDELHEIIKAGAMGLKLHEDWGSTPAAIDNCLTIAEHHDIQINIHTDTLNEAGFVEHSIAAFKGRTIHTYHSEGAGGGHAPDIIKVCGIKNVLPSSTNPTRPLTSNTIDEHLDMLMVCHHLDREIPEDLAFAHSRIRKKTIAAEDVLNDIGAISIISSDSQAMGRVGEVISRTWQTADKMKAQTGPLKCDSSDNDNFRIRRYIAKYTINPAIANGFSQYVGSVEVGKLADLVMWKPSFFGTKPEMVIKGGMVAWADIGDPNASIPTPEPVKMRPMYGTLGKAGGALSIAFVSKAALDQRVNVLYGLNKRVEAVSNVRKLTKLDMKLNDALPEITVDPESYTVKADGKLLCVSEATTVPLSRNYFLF

The first data set deals with Candida albicans. The experiment in a line: In vitro antifungal screening, tube dilution method. The format is cell-based. Conditions: Candida albicans; C. albican; Sabouraud dextrose broth, 37 ± 1 °C, 48 h; read-out: Minimum inhibitory concentration. As to the method:
(§1) The in vitro antimicrobial screening of the synthesized 1,2,4-triazole derivatives (T1–T20) in μM was determined against Gram-positive Bacillus subtilis, […], Gram-negative Escherichia coli bacterium and fungal strains Candida albicans and Aspergillus niger by tube dilution method using ciprofloxacin, amoxycillin (antibacterial) and fluconazole (antifungal) as reference drugs. DMSO was used to dissolve the reference and sample derivatives (T1–T20). Dilutions were prepared in nutrient broth (I.P.) for bacterial (incubated at 37 ± 1 °C for 24 h) and Sabouraud dextrose broth (I.P.) for fungal species (37 ± 1 °C for 48 h for C. albicans) and (25 ± 1 °C for 7 days for A. niger) (Table 3, Figs. 4 and 5).
As for `CCCCCCCCCCCCCCCc1nnc(S)n1N=Cc1ccccc1` [Compound T1], the MIC is 241 µM (≈ 100 µg/mL).

`CCCCCCCCCCCCCCCc1nnc(S)n1N=Cc1ccc(C=O)cc1` [Compound T2]: the MIC is 226 µM (≈ 100 µg/mL).

For the compound `CCCCCCCCCCCCCCCc1nnc(S)n1N=Cc1ccc(C)cc1` [Compound T3], the MIC is 233 µM (≈ 100 µg/mL).

The test system of a further data set is Aspergillus niger. Described as above. The format is cell-based. The settings on record: Aspergillus niger, 168 h; A. niger; Sabouraud dextrose broth, 25 ± 1 °C, 7 days; read-out: Minimum inhibitory concentration. As to the method: as §1
As for `CCCCCCCCCCCCCCCc1nnc(S)n1N=Cc1ccccc1` [Compound T1], the MIC stood at 120 µM (≈ 50 µg/mL).

`CCCCCCCCCCCCCCCc1nnc(S)n1N=Cc1ccc(C=O)cc1` [Compound T2]: the MIC turned out to be 226 µM (≈ 100 µg/mL).

Regarding `CCCCCCCCCCCCCCCc1nnc(S)n1N=Cc1ccc(C)cc1` [Compound T3], the MIC came to 117 µM (≈ 50 µg/mL).

Another data set concerns the target Jack Bean Urease (Canavalia ensiformis, UniProt P07374). Kind of data set: biochemical.
Settings: not given
As to the method:
Urease inhibitory potential for each synthesisized compound (T1–T20) was evaluated using Jack Bean Urease by Indophenol method (Table 5, Figs. 9, 10, 11). 250 µl of jack bean urease (4U) was mixed with 250 µl of different synthesized test compounds and standard of different concentrations [dissolved in DMSO/H2O mixture (1:1 v/v)]. The mixture was pre-incubated for 1 h at 37 °C in test tubes. 2 ml of 100 mM phosphate buffer (pH 6.8) containing 500 mM urea and 0.002% phenol red as an indicator were added in sample test tubes after pre incubation and again incubated at room temperature. Absorbance of reaction mixture was recorded by ELISA at 570 nm. Ammonium carbonate increased the pH of phosphate buffer from 6.8 to 7.7 which was produced from urea by urease enzyme and the end peak was measured by the colour of phenol red indicator [16].
The percentage inhibition of urease enzyme was calculated by using following formula: I%=Acontrol-Asample/Acontrol×100,
where Acontrol is the absorbance of the control; Asample is the absorbance of the test compound.
Regarding `CCCCCCCCCCCCCCCc1nnc(S)n1N=Cc1ccccc1` [Compound T1], the negative logarithm of the IC50 (pIC50) was 3.90, testing at 25 µg/mL gave an inhibition of 25.8%, the inhibition at 50 µg/mL was found to be 48% and the inhibition at 75 µg/mL came out at 72.9%. The compound also yielded an inhibition at 100 µg/mL of 92%.

The compound `CCCCCCCCCCCCCCCc1nnc(S)n1N=Cc1ccc(C=O)cc1` [Compound T2] showed a negative logarithm of the IC50 (pIC50) of 3.92, an inhibition at 25 µg/mL of 40.5%, an inhibition at 50 µg/mL of 49.5% and an inhibition at 75 µg/mL of 55.7%. In addition, 100 µg/mL produced 67.6% inhibition.

Compound `CCCCCCCCCCCCCCCc1nnc(S)n1N=Cc1ccc(C)cc1` [Compound T3] gave a pIC50 of 3.90, an inhibition at 25 µg/mL of 28.2%, an inhibition at 50 µg/mL of 50% and an inhibition at 75 µg/mL of 65.9%. Further, the inhibition at 100 µg/mL is 79.1%.

The next data set has as its system HCT116 (human colon cancer cells). The experiment in a line: Anticancer evaluation, SRB assay. The format is cell-based. Conditions: Homo sapiens, HCT-116; HCT116, 72 h, SRB; mean of at least triplicates. As to the method:
HCT116 (human colon cancer cells) were seeded at 2500 cells/well (96 well plate), allowed to attach overnight, exposed to the respective compounds for 72 h and subjected to SRB assay (570 nm). Data represent mean IC50 of at least triplicates. The compounds were all dissolved in DMSO as stock of 100 mg/ml. […] The highest concentration of each compound tested (100 μg/ml) contained only 0.1% DMSO.
`CCCCCCCCCCCCCCCc1nnc(S)n1N=Cc1ccccc1` [Compound T1] showed a negative logarithm of the IC50 (pIC50) of under 3.62.

For the compound `CCCCCCCCCCCCCCCc1nnc(S)n1N=Cc1ccc(C=O)cc1` [Compound T2], the negative-log IC50 (pIC50) was 5.42.

The compound `CCCCCCCCCCCCCCCc1nnc(S)n1N=Cc1ccc(C)cc1` [Compound T3] gave a pIC50 of 4.78.

Still in this data set, the particulars now being: Homo sapiens, HCT-116; HCT116; value given in dose-response figure.
`CCCCCCCCCCCCCCCc1nnc(S)n1N=Cc1ccc(C=O)cc1` [Compound T2]: it took 1.7 µg/mL to reach half-maximal inhibition (IC50).

Test system in a further data set: not listed separately
The experiment in a line: DPPH free radical scavenging activity. The settings on record: DPPH antioxidant. As to the method:
In the DPPH free radical scavenging activity, compounds (T1–T20) were evaluated for their free radical scavenging activity with ascorbic acid as standard compound. The scavenging effect increased with the increasing concentrations of sample compounds. DPPH is relatively stable nitrogen centered free radical that easily accepts an electron or hydrogen radical to become a stable diamagnetic molecule. DPPH radicals react with suitable reducing agents as a result of which the electrons become paired off forming the corresponding hydrazine. The solution therefore loses colour stoichometrically depending on the number of electrons taken up. […] The sample solutions were incubated for 30 min at room temperature in dark place and after then absorbance was recorded against the blank solution at 517 nm. The relative percent of DPPH scavenging activity was calculated according to the following equation: I%=Acontrol-Asample/Acontrol×100,
where Acontrol is the absorbance of the control, Asample is the absorbance of the test compound.
As for `CCCCCCCCCCCCCCCc1nnc(S)n1N=Cc1ccccc1` [Compound T1], the IC50 was 46.83 µg/mL (≈ 113 µM).

With `CCCCCCCCCCCCCCCc1nnc(S)n1N=Cc1ccc(C=O)cc1` [Compound T2], the IC50 amounted to 34.83 µg/mL (≈ 78.7 µM).

`CCCCCCCCCCCCCCCc1nnc(S)n1N=Cc1ccc(C)cc1` [Compound T3] returned an IC50 of 34.38 µg/mL (≈ 80.2 µM).

The data set is the same for the next values; noted with them: DPPH, 25 µg/ml.
With `CCCCCCCCCCCCCCCc1nnc(S)n1N=Cc1ccccc1` [Compound T1], the “% inhibition” value stood at 25.45%.

With `CCCCCCCCCCCCCCCc1nnc(S)n1N=Cc1ccc(C=O)cc1` [Compound T2], the “% inhibition” value is on record as 45.67%.

`CCCCCCCCCCCCCCCc1nnc(S)n1N=Cc1ccc(C)cc1` [Compound T3]: the “% inhibition” value is reported as 43.56%.

Staying with this data set, now noted: DPPH, 50 µg/ml.
`CCCCCCCCCCCCCCCc1nnc(S)n1N=Cc1ccccc1` [Compound T1]: the “% inhibition” value was determined as 49.65%.

On to `CCCCCCCCCCCCCCCc1nnc(S)n1N=Cc1ccc(C=O)cc1` [Compound T2], for which the “% inhibition” value was 56.98%.

Regarding `CCCCCCCCCCCCCCCc1nnc(S)n1N=Cc1ccc(C)cc1` [Compound T3], the “% inhibition” value is 60.12%.

Staying with this data set, now noted: DPPH, 75 µg/ml.
As for `CCCCCCCCCCCCCCCc1nnc(S)n1N=Cc1ccccc1` [Compound T1], the “% inhibition” value came to 69.67%.

On to `CCCCCCCCCCCCCCCc1nnc(S)n1N=Cc1ccc(C=O)cc1` [Compound T2], for which the “% inhibition” value worked out at 70.16%.

As for `CCCCCCCCCCCCCCCc1nnc(S)n1N=Cc1ccc(C)cc1` [Compound T3], the “% inhibition” value is on record as 75.67%.

The same data set, now with this note: DPPH, 100 µg/ml.
For `CCCCCCCCCCCCCCCc1nnc(S)n1N=Cc1ccccc1` [Compound T1], the “% inhibition” value is 94.78%.

For the compound `CCCCCCCCCCCCCCCc1nnc(S)n1N=Cc1ccc(C=O)cc1` [Compound T2], the “% inhibition” value worked out at 84.21%.

On to `CCCCCCCCCCCCCCCc1nnc(S)n1N=Cc1ccc(C)cc1` [Compound T3], for which the “% inhibition” value is 88.98%.

For the next data set, the system named is Pseudomonas aeruginosa. Kind of data set: In vitro antimicrobial screening, tube dilution method. The format is cell-based. Conditions: Pseudomonas aeruginosa; P. aeruginosa, Gram −ve; nutrient broth, 37 ± 1 °C, 24 h; read-out: Minimum inhibitory concentration. As for the experimental part: as §1
Turning to `CCCCCCCCCCCCCCCc1nnc(S)n1N=Cc1ccccc1` [Compound T1], the MIC stood at 241 µM (≈ 100 µg/mL).

`CCCCCCCCCCCCCCCc1nnc(S)n1N=Cc1ccc(C=O)cc1` [Compound T2]: the MIC stood at 56.4 µM (≈ 25 µg/mL).

Take `CCCCCCCCCCCCCCCc1nnc(S)n1N=Cc1ccc(C)cc1` [Compound T3]: the MIC came out at 58.3 µM (≈ 25 µg/mL).

The subject of the next data set is Escherichia coli. The description is as above. It counts as cell-based. Conditions: Escherichia coli; E. coli, Gram −ve; nutrient broth, 37 ± 1 °C, 24 h; read-out: Minimum inhibitory concentration. As to the method:
as §1
Take `CCCCCCCCCCCCCCCc1nnc(S)n1N=Cc1ccccc1` [Compound T1]: the MIC came to 241 µM (≈ 100 µg/mL).

In the case of `CCCCCCCCCCCCCCCc1nnc(S)n1N=Cc1ccc(C=O)cc1` [Compound T2], the MIC is 113 µM (≈ 50 µg/mL).

Consider `CCCCCCCCCCCCCCCc1nnc(S)n1N=Cc1ccc(C)cc1` [Compound T3], for which the MIC was found to be 117 µM (≈ 50 µg/mL).

The subject of another data set is Bacillus subtilis. The description is as above. The format is cell-based. Conditions: Bacillus subtilis; B. substilis, Gram +ve; nutrient broth, 37 ± 1 °C, 24 h; read-out: Minimum inhibitory concentration. As to the method:
as §1
For `CCCCCCCCCCCCCCCc1nnc(S)n1N=Cc1ccccc1` [Compound T1], the MIC was 120 µM (≈ 50 µg/mL).

For `CCCCCCCCCCCCCCCc1nnc(S)n1N=Cc1ccc(C=O)cc1` [Compound T2], the MIC was determined as 56.4 µM (≈ 25 µg/mL).

On to `CCCCCCCCCCCCCCCc1nnc(S)n1N=Cc1ccc(C)cc1` [Compound T3], for which the MIC is 58.3 µM (≈ 25 µg/mL).

Test system in the next data set: not given
Assay: not given
Settings: not given
`CCCCCCCCCCCCCCCc1nnc(S)n1N=Cc1ccccc1` [Compound T1] had a melting point of 184 to 187 °C.

With `CCCCCCCCCCCCCCCc1nnc(S)n1N=Cc1ccc(C=O)cc1` [Compound T2], the melting point was in the range of 182 to 185 °C.

Take `CCCCCCCCCCCCCCCc1nnc(S)n1N=Cc1ccc(C)cc1` [Compound T3]: the melting point was 190 to 193 °C.
